Data: patent US20250122218A1, “MODULATORS OF CYSTIC FIBROSIS TRANSMEMBRANE CONDUCTANCE REGULATOR” (Vertex Pharmaceuticals Incorporated, priority 2022, published 2025)

Biological target: T1, CFTR in F508del/MF-HBE cells (Homo sapiens, UniProt P13569, DEL508-508)
T1 construct: human bronchial epithelial (HBE) cells derived from CF subjects heterozygous for F508del and a minimal function CFTR mutation; endogenous in cells; host or cells: primary human bronchial epithelial cells from CF subjects (F508del/MF-HBE)
T1 sequence (P13569 with tags, fused parts or gaps DEL508-508): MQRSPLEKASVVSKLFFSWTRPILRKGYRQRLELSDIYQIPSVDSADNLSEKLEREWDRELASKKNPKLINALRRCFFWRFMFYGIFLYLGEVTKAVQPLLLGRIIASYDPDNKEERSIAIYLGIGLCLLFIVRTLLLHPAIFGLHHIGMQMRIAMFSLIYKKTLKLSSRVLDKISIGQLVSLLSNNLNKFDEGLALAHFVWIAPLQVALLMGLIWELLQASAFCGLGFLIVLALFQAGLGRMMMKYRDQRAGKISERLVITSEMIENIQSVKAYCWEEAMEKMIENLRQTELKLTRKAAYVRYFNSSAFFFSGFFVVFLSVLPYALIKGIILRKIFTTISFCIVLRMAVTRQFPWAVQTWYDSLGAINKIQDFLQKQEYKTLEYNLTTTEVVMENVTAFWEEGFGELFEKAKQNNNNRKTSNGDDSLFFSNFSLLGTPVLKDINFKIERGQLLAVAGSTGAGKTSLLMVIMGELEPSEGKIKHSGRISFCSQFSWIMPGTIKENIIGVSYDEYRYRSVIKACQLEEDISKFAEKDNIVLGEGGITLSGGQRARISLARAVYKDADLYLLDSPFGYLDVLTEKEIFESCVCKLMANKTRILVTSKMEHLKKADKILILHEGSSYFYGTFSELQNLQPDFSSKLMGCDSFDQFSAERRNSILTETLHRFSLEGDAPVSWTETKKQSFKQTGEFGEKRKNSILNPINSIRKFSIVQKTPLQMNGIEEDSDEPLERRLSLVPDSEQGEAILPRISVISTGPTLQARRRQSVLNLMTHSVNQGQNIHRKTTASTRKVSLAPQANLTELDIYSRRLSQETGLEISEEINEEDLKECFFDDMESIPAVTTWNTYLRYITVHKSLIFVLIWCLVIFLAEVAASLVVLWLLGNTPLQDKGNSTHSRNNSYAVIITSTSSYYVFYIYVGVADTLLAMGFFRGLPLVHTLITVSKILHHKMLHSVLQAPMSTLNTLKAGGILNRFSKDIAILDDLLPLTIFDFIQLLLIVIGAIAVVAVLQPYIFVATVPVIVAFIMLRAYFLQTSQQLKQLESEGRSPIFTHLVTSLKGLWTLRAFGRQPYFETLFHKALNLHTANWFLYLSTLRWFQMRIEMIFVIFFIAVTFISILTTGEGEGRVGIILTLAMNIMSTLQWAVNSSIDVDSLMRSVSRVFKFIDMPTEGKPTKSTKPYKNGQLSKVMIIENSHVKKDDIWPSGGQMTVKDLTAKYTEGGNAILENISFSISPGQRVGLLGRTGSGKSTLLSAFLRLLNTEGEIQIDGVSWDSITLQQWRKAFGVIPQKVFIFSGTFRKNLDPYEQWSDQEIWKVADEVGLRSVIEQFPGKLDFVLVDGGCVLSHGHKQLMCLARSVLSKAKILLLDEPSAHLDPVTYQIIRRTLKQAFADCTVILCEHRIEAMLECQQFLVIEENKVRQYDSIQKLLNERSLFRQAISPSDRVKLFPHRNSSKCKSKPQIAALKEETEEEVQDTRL
Experiment: Ussing chamber assay of CFTR-mediated short-circuit currents (identification of potentiator compounds)
Format: cell-based
Conditions: potentiator incubated 18-24 hours at 37° C. in combination with 10 μM corrector, in the presence of 20% human serum, CFTR-mediated ISC
Method in brief: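 Short-circuit current was measured in Ussing chambers at 37° C, Vhold 0 mV, 30 μM apical amiloride. CFTR current was defined as the forskolin (20 μM) response relative to the current remaining after BPO/GlyH-101/inhibitor 172 (20 μM each). Before recording, cells had 18-24 h exposure to test potentiators with 10 μM corrector compound in 20% human serum.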

Compound | EC50 [nM]
CN1CCCCC(O)(C(F)(F)F)C2=NN=C(O2)c2nc(c(C(F)(F)F)cc2N)CC1=O (stereo not drawn) [Compound 53, 17-amino-6-hydroxy-11-methyl-6,15-bis(trifluoromethyl)-19-oxa-3,4,11,18-tetrazatricyclo[12.3.1.12,5]nonadeca-1(18),2,4,14,16-pentaen-12-one] | > 1000
COC1CCCCc2ccc(F)c(c2)C(O)(C(F)(F)F)C2=NN=C(O2)c2nc1c(C(F)(F)F)cc2N (stereo not drawn) [Compound 61, 20-Amino-8-fluoro-16-methoxy-6,18-bis(trifluoromethyl)-23-oxa-3,4,21-triazatetracyclo[15.3.1.12,5.17,11]tricosa-1(21),2,4,7(22),8,10,17,19-octaen-6-ol] | < 500
COC1CCCCc2ccc(F)c(c2)C(O)(C(F)(F)F)C2=NN=C(O2)c2nc1c(C(F)(F)F)cc2N (stereo not drawn) [Compound 62, 20-Amino-8-fluoro-16-methoxy-6,18-bis(trifluoromethyl)-23-oxa-3,4,21-triazatetracyclo[15.3.1.12,5.17,11]tricosa-1(21),2,4,7(22),8,10,17,19-octaen-6-ol] | < 500
N#CC1CCCCc2cccc(c2)C(O)(C(F)(F)F)C2=NN=C(O2)c2nc1c(C(F)(F)F)cc2N (stereo not drawn) [Compound 63, 20-amino-6-hydroxy-6,18-bis(trifluoromethyl)-23-oxa-3,4,21-triazatetracyclo[15.3.1.12,5.17,11]tricosa-1(21),2,4,7,9,11(22),17,19-octaene-16-carbonitrile] | < 500
N#CC1CCCCc2cccc(c2)C(O)(C(F)(F)F)C2=NN=C(O2)c2nc1c(C(F)(F)F)cc2N (stereo not drawn) [Compound 64, 20-amino-6-hydroxy-6,18-bis(trifluoromethyl)-23-oxa-3,4,21-triazatetracyclo[15.3.1.12,5.17,11]tricosa-1(21),2,4,7,9,11(22),17,19-octaene-16-carbonitrile] | < 500
N#CC1CCCCc2ccc(F)c(c2)C(O)(C(F)(F)F)C2=NN=C(O2)c2nc1c(C(F)(F)F)cc2N (stereo not drawn) [Compound 69, 20-Amino-8-fluoro-6-hydroxy-6,18-bis(trifluoromethyl)-23-oxa-3,4,21-triazatetracyclo[15.3.1.12,5.17,11]tricosa-1(21),2,4,7,9,11(22),17,19-octaene-16-carbonitrile] | < 500
COc1ccc(CN2CCCCC[C@](O)(C(F)(F)F)C3=NN=C(O3)c3nc(c(C(F)(F)F)cc3N)C2=O)cc1 [Compound 76, (6R)-17-Amino-6-hydroxy-12-[(4-methoxyphenyl)methyl]-6,15-bis (trifluoromethyl)-19-oxa-3,4,12,18-tetrazatricyclo [12.3.1.12,5] nonadeca-1(18),2,4,14,16-pentaen-13-one] | < 500
CC(C)(C)CN1CCCCC[C@](O)(C(F)(F)F)C2=NN=C(O2)c2nc(c(C(F)(F)F)cc2N)C1=O [Compound 80, (6R)-17-Amino-12-(2,2-dimethylpropyl)-6-hydroxy-6,15-bis (trifluoromethyl)-19-oxa-3,4,12,18-tetrazatricyclo [12.3.1.12,5] nonadeca-1(18),2,4,14,1 6-pentaen-13-one] | < 500
Nc1cc(C(F)(F)F)c2nc1-c1nnc(o1)[C@@](O)(C(F)(F)F)CCCCCN(C1CCCCC1)C2=O [Compound 81, (6R)-17-Amino-12-cyclohexyl-6-hydroxy-6,15-bis (trifluoromethyl)-19-oxa-3,4,12,18-tetrazatricyclo [12.3.1.12,5] nonadeca-1(18),2,4,14,1 6-pentaen-13-one] | < 500
CCCN1CCCCC[C@](O)(C(F)(F)F)C2=NN=C(O2)c2nc(c(C(F)(F)F)cc2N)C1=O [Compound 82, (6R)-17-Amino-6-hydroxy-12-propyl-6,15-bis (trifluoromethyl)-19-oxa-3,4,12,18-tetrazatricyclo [12.3.1.12,5] nonadeca-1(18),2,4,14,1 6-pentaen-13-one] | < 500
Nc1cc(C(F)(F)F)c2nc1-c1nnc(o1)[C@@](O)(C(F)(F)F)CCCCCN(CC1CC1)C2=O [Compound 83, (6R)-17-Amino-12-(cyclopropylmethyl)-6-hydroxy-6,15-bis(trifluoromethyl)-19-oxa-3,4,12,18-tetrazatricyclo [12.3.1.12,5] nonadeca-1(18),2,4,14,1 6-pentaen-13-one] | < 500
Nc1cc(C(F)(F)F)c2nc1-c1nnc(o1)[C@@](O)(C(F)(F)F)CCCCCN(C1CC(F)(F)C1)C2=O [Compound 84, (6R)-17-Amino-12-(3,3-difluorocyclobutyl)-6-hydroxy-6,15-bis (trifluoromethyl)-19-oxa-3,4,12,18-tetrazatricyclo [12.3.1.12,5] nonadeca-1(18),2,4,14,1 6-pentaen-13-one] | < 500

Next, values leading:

EC50 [nM] | Compound
< 500 | CC(C)(C)N1CCCCC[C@](O)(C(F)(F)F)C2=NN=C(O2)c2nc(c(C(F)(F)F)cc2N)C1=O [Compound 85, (6R)-17-Amino-12-tert-butyl-6-hydroxy-6,15-bis(trifluoromethyl)-19-oxa-3,4,12,18-tetrazatricyclo [12.3.1.12,5] nonadeca-1(18),2,4,14,1 6-pentaen-13-one]
< 500 | Nc1cc(C(F)(F)F)c2nc1-c1nnc(o1)[C@@](O)(C(F)(F)F)CCCCCN(C13CC(C1)C3)C2=O [Compound 86, (6R)-17-Amino-12-(1-bicyclo[1.1.1]pentanyl)-6-hydroxy-6,15-bis (trifluoromethyl)-19-oxa-3,4,12,18-tetrazatricyclo [12.3.1.12,5] nonadeca-1(18),2,4,14,1 6-pentaen-13-one]
< 500 | Nc1cc(C(F)(F)F)c2nc1-c1nnc(o1)[C@@](O)(C(F)(F)F)CCCCCN(C1CC3(CCC3)C1)C2=O [Compound 87, (6R)-17-Amino-6-hydroxy-12-spiro[3.3]heptan-2-yl-6,15-bis(trifluoromethyl)-19-oxa-3,4,12,18-tetrazatricyclo [12.3.1.12,5] nonadeca-1(18),2,4,14,1 6-pentaen-13-one]
< 500 | CC[C@H](C)N1CCCCC[C@](O)(C(F)(F)F)C2=NN=C(O2)c2nc(c(C(F)(F)F)cc2N)C1=O [Compound 88, (6R)-17-Amino-6-hydroxy-12-[(1S)-1-methylpropyl]-6,15-bis (trifluoromethyl)-19-oxa-3,4,12,18-tetrazatricyclo [12.3.1.12,5] nonadeca-1(18),2,4,14,1 6-pentaen-13-one]
< 500 | CC[C@@H](C)N1CCCCC[C@](O)(C(F)(F)F)C2=NN=C(O2)c2nc(c(C(F)(F)F)cc2N)C1=O [Compound 89, (6R)-17-Amino-6-hydroxy-12-[(1R)-1-methylpropyl]-6,15-bis (trifluoromethyl)-19-oxa-3,4,12,18-tetrazatricyclo [12.3.1.12,5] nonadeca-1(18),2,4,14,1 6-pentaen-13-one]
< 500 | CCC(C)(C)N1CCCCC[C@](O)(C(F)(F)F)C2=NN=C(O2)c2nc(c(C(F)(F)F)cc2N)C1=O [Compound 90, (6R)-17-Amino-12-(1,1-dimethylpropyl)-6-hydroxy-6,15-bis(trifluoromethyl)-19-oxa-3,4,12,18-tetrazatricyclo [12.3.1.12,5] nonadeca-1(18),2,4,14,1 6-pentaen-13-one]
< 500 | Nc1cc(C(F)(F)F)c2nc1-c1nnc(o1)[C@@](O)(C(F)(F)F)CCCCCN(C1CCC(F)(F)CC1)C2=O [Compound 91, (6R)-17-Amino-12-(4,4-difluorocyclohexyl)-6-hydroxy-6,15-bis (trifluoromethyl)-19-oxa-3,4,12,18-tetrazatricyclo [12.3.1.12,5] nonadeca-1(18),2,4,14,1 6-pentaen-13-one]
< 500 | Nc1cc(C(F)(F)F)c2nc1-c1nnc(o1)[C@@](O)(C(F)(F)F)CCCCCN(C1C3CC1C3)C2=O (stereo partly drawn) [Compound 92, (6R)-17-Amino-12-(2-bicyclo[1.1.1]pentanyl)-6-hydroxy-6,15-bis(trifluoromethyl)-19-oxa-3,4,12,18-tetrazatricyclo [12.3.1.12,5] nonadeca-1(18),2,4,14,1 6-pentaen-13-one]
< 500 | CC1(C)CC(N2CCCCC[C@](O)(C(F)(F)F)C3=NN=C(O3)c3nc(c(C(F)(F)F)cc3N)C2=O)C1 [Compound 93, (6R)-17-Amino-12-(3,3-dimethylcyclobutyl)-6-hydroxy-6,15-bis (trifluoromethyl)-19-oxa-3,4,12,18-tetrazatricyclo [12.3.1.12,5] nonadeca-1(18),2,4,14,1 6-pentaen-13-one]
< 500 | CC1(N2CCCCC[C@](O)(C(F)(F)F)C3=NN=C(O3)c3nc(c(C(F)(F)F)cc3N)C2=O)CC1 [Compound 94, (6R)-17-Amino-6-hydroxy-12-(1-methylcyclopropyl)-6,15-bis (trifluoromethyl)-19-oxa-3,4,12,18-tetrazatricyclo [12.3.1.12,5] nonadeca-1(18),2,4,14,1 6-pentaen-13-one]
< 500 | Nc1cc(C(F)(F)F)c2nc1-c1nnc(o1)[C@@](O)(C(F)(F)F)CCCCCN(C1CC3(C1)CC(F)(F)C3)C2=O [Compound 95, (6R)-17-Amino-12-(2,2-difluorospiro [3.3]heptan-6-yl)-6-hydroxy-6,15-bis (trifluoromethyl)-19-oxa-3,4,12,18-tetrazatricyclo [12.3.1.12,5] nonadeca-1(18),2,4,14,1 6-pentaen-13-one]
< 500 | CC1(N2CCCCC[C@](O)(C(F)(F)F)C3=NN=C(O3)c3nc(c(C(F)(F)F)cc3N)C2=O)CC(F)(F)C1 [Compound 96, (6R)-17-Amino-12-(3,3-difluoro-1-methyl-cyclobutyl)-6-hydroxy-6,15-bis (trifluoromethyl)-19-oxa-3,4,12,18-tetrazatricyclo [12.3.1.12,5] nonadeca-1(18),2,4,14,1 6-pentaen-13-one]
